Patent US20240408087A1, “TRPC6 INHIBITORY COMPOUNDS FOR TREATING SEPSIS” (Boehringer Ingelheim International GmbH, priority 2021, published 2024)
pIC50: −log10 of the molar value.

How the values were obtained:
mouse CLP model [1] = experiment: Chronic model of CLP: survival rate; assay type: in vivo
Protocol: (§1) Two models were performed: • Acute model of CLP lasting 24 h to measure vascular hyper-permeability in lung, liver, kidney and heart tissue. The vascular hyper-permeability was followed by the extravasation of Evans blue injected intravenously and diffused and accumulated into the tissue. The vascular hyper-permeability was expressed as μg of Evans blue in 100 mg of dry tissue. • Chronic model of CLP lasting 8 days. CLP is performed on day 0 and the survival rate is followed for 8 consecutive days.
(§2) On day 0, mice were anesthetized with ketamine (80 mg kg^−1, i.p.) and xylazine (10 mg kg^−1, i.p.). A 1-1.5 cm abdominal midline incision was made, and the caecum was located and tightly ligated at half the distance between distal pole and the base of the caecum with 4-0 silk suture (mild grade). The caecum was punctured through-and-through once with a 21-gauge needle after medium ligation. A small amount of stool was extruded to ensure that the wounds were patent. Then the cecum was replaced in its original position within the abdomen, which was closed with sutures in layers. For negative control animals, a sham surgery was performed: sham-operated animals underwent identical laparotomy but without cecal ligation or puncture. The animals were resuscitated immediately after surgery with 1 mL subcutaneous normal saline and returned to their cages.
Compound 2 of WO 2019/161010 or its vehicle (0.5% natrosol 0.010% Tween 80) was given orally (5 ml/kg) at 30 mg/kg 2 h after CLP and once daily from day 1 to day 6. Adrecizumab, anti-adrenomedullin antibody, was given at 4 mg/kg i.v. only once, 1 h before CLP. 10 mice were included in each group.
In a second experiment, Compound 17 or its vehicle (0.5% natrosol 0.010% Tween 80) was given orally (5 ml/kg). Compound 17 was given at 10 mg/kg in two groups. In the first group, Compound 17 was given at 2 h after CLP and twice daily from day 1 to day 6. In the second group, Compound 17 was given at 24 h after CLP and twice daily from day 2 to day 6. 10 mice were included in each group.

mouse CLP model [2] = experiment: Acute model of CLP: vascular hyper-permeability (Evans blue extravasation); assay type: in vivo
Protocol: Cecal ligation puncture (CLP) is a model of polymicrobial sepsis which consists of extruding fecal content in the abdominal cavity of the animals under anesthesia.
as §1
as §2, with “Mice” for “On day 0, mice”, “cages. Experiment was terminated at 24 hrs after CLP.” for “cages.”
10 mice were included in each group.
Evans blue dye (0.1 mL at 40 mg/kg) was injected through each tail vein 30 minutes before euthanasia at 24 hours after CLP. Lung, kidney, liver and heart tissues are collected, and Evans blue was extracted in Formamide. The concentration of the Evans blue dye was calculated from a standard curve and expressed as μg/100 mg lung dry tissue. The data were analyzed by using commercially available software (Prism, version 8.3.0; GraphPad Software Inc., San Diego, CA). Different groups were compared with the one-way variance analysis (ANOVA) followed by the Dunnett test (e.g CLP group compared to treated groups). All data were expressed as a mean±SEM. The limit of the significance was taken as p values less than 0.05 (p<0.05).

TRPC6 = target: T1, TRPC6 (Homo sapiens, UniProt Q9Y210); experiment: in vitro Patch Clamp; assay type: cell-based
T1 sequence (Q9Y210 1-931): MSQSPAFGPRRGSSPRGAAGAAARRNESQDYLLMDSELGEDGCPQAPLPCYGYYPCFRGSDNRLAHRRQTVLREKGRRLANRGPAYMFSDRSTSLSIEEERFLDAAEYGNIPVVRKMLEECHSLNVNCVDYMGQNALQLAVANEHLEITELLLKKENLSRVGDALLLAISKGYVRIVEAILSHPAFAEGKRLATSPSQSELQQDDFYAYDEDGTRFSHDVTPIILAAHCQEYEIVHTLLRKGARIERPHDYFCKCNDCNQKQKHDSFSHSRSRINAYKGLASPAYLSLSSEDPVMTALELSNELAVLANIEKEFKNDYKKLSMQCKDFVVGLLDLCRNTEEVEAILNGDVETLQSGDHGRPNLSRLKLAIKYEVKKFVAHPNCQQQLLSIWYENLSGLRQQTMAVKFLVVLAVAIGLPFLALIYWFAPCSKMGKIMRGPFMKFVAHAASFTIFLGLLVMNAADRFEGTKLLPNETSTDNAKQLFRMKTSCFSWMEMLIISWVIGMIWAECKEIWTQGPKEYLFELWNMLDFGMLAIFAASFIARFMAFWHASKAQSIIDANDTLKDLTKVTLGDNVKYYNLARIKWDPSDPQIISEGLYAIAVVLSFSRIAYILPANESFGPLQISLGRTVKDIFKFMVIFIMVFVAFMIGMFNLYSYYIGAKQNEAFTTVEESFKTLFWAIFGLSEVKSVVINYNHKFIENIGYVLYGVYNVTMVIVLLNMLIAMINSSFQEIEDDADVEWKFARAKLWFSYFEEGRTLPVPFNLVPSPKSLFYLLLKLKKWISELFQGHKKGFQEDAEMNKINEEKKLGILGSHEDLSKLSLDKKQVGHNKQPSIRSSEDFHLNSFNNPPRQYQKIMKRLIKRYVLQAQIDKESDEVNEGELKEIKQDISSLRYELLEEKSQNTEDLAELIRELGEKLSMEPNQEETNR

[3] = tested on: LPS aerosol induced lung edema; experiment: LPS-induced vascular leakage in a mouse model (BALF total protein); assay type: in vivo; conditions: 4 h after LPS, average of two experiments
Protocol: Mice are placed in a chamber and exposed to Lipopolysaccharide (LPS, known as endotoxin and found in outer membrane of Gram-negative bacteria such as Escherichia Coli) aerosol (0.8 mg/ml) for 30 min (or Phosphate-Buffered Saline, PBS as vehicle). The TRPC6 inhibitor compound 17 is given orally 12 h and 2 h before LPS challenge. The mice are euthanized 4 h after the end of the LPS aerosol exposure. Blood is collected for plasma exposure of the compound and the lungs are flushed with 0.8 ml PBS. The broncho-alveolar-lavage is centrifuged at 500 revolutions/min for 10 min and the supernatant is collected for the measurement of total protein according to Lowry measurement by absorbance at 660 nm. The mouse LPS experiment is repeated twice, and the data of each experiment are represented in FIG. 3.1 for the first experiment and FIG. 3.2 for the second experiment. FIG. 3.3 represents the average of the two experiments expressed in percent of the LPS group.
LPS aerosol induced lung edema is characterized by a significant accumulation of Broncho-Alveolar-Lavage protein (BALF protein). […]
FIG. 3.1 and FIG. 3.2 show the amount and FIG. 3.3 the percent of total protein in BALF (Broncho Alveolar Lavage Fluid) after LPS (LipoPolySaccharide) treatment without or after pretreatment with (+) compound 17 as evaluated along the following tabular scheme

[4] = Example 1, prophylactic mode, 30 mg/kg orally 2 h before and 8 h after CLP
[5] = Example 1, therapeutic mode, 30 mg/kg orally 2 h and 8 h after CLP
[6] = Example 2, 30 mg/kg orally, therapeutic mode 2 and 8 h after CLP
[7] = Example 2, 10 mg/kg orally, therapeutic mode 2 and 8 h after CLP

For `Nc1ccc(C2CCN(C(=O)c3ccc(Oc4ccc(C(F)(F)F)cc4)cc3)CC2)nn1` [Compound 2 of WO 2019/161010], the “survival rate at day 8” value (mouse CLP model [1]; first experiment, 30 mg/kg orally 2 h after CLP and once daily from day 1 to day 6) was 50%, the “survival rate compared with adrecizumab” value (mouse CLP model [1]; first experiment, day 8) was “significantly superior to adrecizumab survival rate” and the “inhibition of Evans blue concentration in heart” value (mouse CLP model [2]; Example 1, heart, therapeutic mode, 30 mg/kg orally 2 h and 8 h after CLP) was 94%. For the same molecule, the “inhibition of Evans blue concentration in kidney” value (mouse CLP model [2]; [4]) was 84%, the “inhibition of Evans blue concentration in kidney” value (mouse CLP model [2]; [5]) was 98% and the “inhibition of Evans blue concentration in liver” value (mouse CLP model [2]; [4]) was 71%. The “inhibition of Evans blue concentration in liver” value (mouse CLP model [2]; [5]) was 88%, the “inhibition of Evans blue concentration in lung” value (“inhibition … in lung” for short) (mouse CLP model [2]; Example 1, lung, prophylactic mode, 30 mg/kg orally 2 h before and 8 h after CLP, 24 h after CLP) was 87% and the “inhibition … in lung” value (mouse CLP model [2]; Example 1, lung, therapeutic mode, 10 mg/kg orally 2 h and 8 h after CLP, 24 h after CLP) was 87%. The “inhibition … in lung” value (mouse CLP model [2]; Example 1, lung, therapeutic mode, 30 mg/kg orally 2 h and 8 h after CLP, 24 h after CLP) was 100%, the “reduction of Evans blue concentration in heart” value (“reduction … in heart” below) (mouse CLP model [2]; Example 2, heart, 30 mg/kg orally, therapeutic mode 2 and 8 h after CLP) was 100% and the “reduction of Evans blue concentration in kidney” value (mouse CLP model [2]; [6]) was 90%. The “reduction of Evans blue concentration in liver” value (mouse CLP model [2]; [6]) was 58% and the “reduction of Evans blue concentration in lung tissue” value (mouse CLP model [2]; Example 2, lung, 30 mg/kg orally, therapeutic mode 2 and 8 h after CLP) was 94%.

`COc1cc(C(=O)N2CCC(c3ccc(N)nn3)CC2)ncc1Oc1ccc(F)cc1` [Compound 17, [4-(6-Amino-pyridazin-3-yl)-piperidin-1-yl]-[5-(4-fluoro-phenoxy)-4-methoxy-pyridin-2-yl]-methanone] was tested, and the “survival rate at day 8” value (mouse CLP model [1]; second experiment, 10 mg/kg orally at 2 h after CLP and twice daily from day 1 to day 6) was 60%, the “survival rate at day 8” value (mouse CLP model [1]; second experiment, 10 mg/kg orally at 24 h after CLP and twice daily from day 2 to day 6) was 50% and the pIC50 (TRPC6) was 7.72. For the same molecule, the IC90 (TRPC6) was 104 nM, the “in vitro Patch Clamp IC75” value (TRPC6) was 48 nM and the “reduction … in heart” value (mouse CLP model [2]; Example 2, heart, 3 mg/kg orally, therapeutic mode 2 and 8 h after CLP) was 100%. The “reduction … in heart” value (mouse CLP model [2]; Example 2, heart, 10 mg/kg orally, therapeutic mode 2 and 8 h after CLP) was 120%, the “reduction of Evans blue concentration in kidney” value (mouse CLP model [2]; [7]) was 95% and the “reduction of Evans blue concentration in liver” value (mouse CLP model [2]; [7]) was 48%. The “inhibition … in lung” value (mouse CLP model [2]; Example 2, lung, 1 mg/kg orally, therapeutic mode 2 and 8 h after CLP) was 65%, the “inhibition … in lung” value (mouse CLP model [2]; Example 2, lung, 3 mg/kg orally, therapeutic mode 2 and 8 h after CLP) was 90% and the “inhibition … in lung” value (mouse CLP model [2]; Example 2, lung, 10 mg/kg orally, therapeutic mode 2 and 8 h after CLP) was 100%. The vascular leakage (mouse CLP model [2]; summary of FIGS. 2.1 to 2.4 (CLP) and FIGS. 3.1 to 3.3 (LPS)) was “significantly reduces vascular leakage”, the “reduction of BALF protein concentration” value ([3]; 3 mg/kg p.o. 12 h and 2 h before LPS aerosol) was 56% and the “reduction of BALF protein concentration” value ([3]; 10 mg/kg p.o. 12 h and 2 h before LPS aerosol) was 62%.

For “Adrecizumab: anti-adrenomedullin antibody”, the “survival rate at day 8” value (mouse CLP model [1]; first experiment, 4 mg/kg i.v. only once, 1 h before CLP) was 30%.
